According to PMC6934184, “Selective DNA-PKcs inhibition extends the therapeutic index of localized radiotherapy and chemotherapy” (The Journal of Clinical Investigation, 2019):

System: DNA-PK–expressing tumor cell lines
Experiment: clonogenic survival with IR, tumor cell line panel
Format: cell-based, human
Settings: 1 μM, 24 hours
Procedure: Cell line γH2AX and 53BP1 foci immunofluorescence and quantitation
Cells grown on coverslips or in 96-well plates were treated with 1 or 5 µM NU5455 or DMSO 1 hour prior to irradiation (0, 2.5 or 10 Gy) using an RS 320 X-ray Research System (Gulmay Medical). At set timepoints (15 or 30 minutes, or 1, 4, 5, 6, or 24 hours post-irradiation), cells were washed and fixed in methanol or 3% paraformaldehyde (PFA). […] In A549 and Calu-6, cells were Hoechst stained (5 µg/ml), and the average numbers of γH2AX and 53BP1 foci per cell were quantified from 400 nuclei per sample using an In Cell analyzer 1000 (GE Healthcare). For MCF7 cells, coverslips were mounted using Vectashield mounting medium with DAPI (Vector Labs) and imaged using a Leica TCS SPE confocal fluorescence microscope. Total fluorescence intensity was determined using ImagePro Plus 5.0 software (Media Cybernetics). […]
Cells were washed in phosphate-buffered saline (PBS), trypsinized and counted. […] Colonies were fixed using Carnoys fixture (75% v/v methanol, 25% v/v acetic acid, Fisher), stained with crystal violet (0.4% w/v in water), and counted using a ColCount automated colony counter (Oxford Optronics). Cell survival was calculated as a percentage of the untreated control. […]

Question: How did the “SER80 values, median over cell lines” value turn out when CN(C(=O)CN1CCOCC1)c1ccc2sc3c(-c4cccc5c(=O)cc(N6CC7CCC(C6)O7)oc45)cccc3c2c1 [NU5455] was run?
Answer: 2.3 fold
